In US7601754B2, “Flavonoid compounds as therapeutic antioxidants” (Antoxis Limited, priority 2002, dated 2009):
Several values for one entry are separate records, joined by “and”; a condition that tells them apart may be missing. Equal entries are not always repeated.

Experiments:
[1] = Stoichiometric measurements: ESR, reduction of excess galvinoxyl radical; assay type: physicochemical; conditions: galvinoxyl radicals reduced per molecule, ethanol, flavonoid 0.1 mM + galvinoxyl 0.5 mM, 5 minutes from mixing
Method: (§1) Within a biological system where a number of polyphenols may be present at similar concentrations, antioxidant efficacy may be predominantly governed by reaction kinetics rather than stoichiornetry. Consequently, the antioxidant potential of thirteen flavonoids and vitamin E were assessed and their kinetic and stochiometric reduction of a synthetic radical using stopped-flow electron spin resonance (ESR) spectroscopy has been compared. The radical used was galvinoxyl (Galv-O°), (2,6-di-tert-butyl-α-(3,5-di-tert-butyl-4-oxo-2,5-cyclohexadien-1-ylidene)-p-tolyloxy) shown below:
Ethanolic solutions of flavonoids (0.1 mM) were prepared. Aliquots (3 ml) of an ethanolic galvinoxyl solution (0.5 mM) were mixed with an equal volume of flavonoid solution then transferred to an ESR quartz cell. The spectra and reaction stoichiometry were evaluated. In brief, the spectra of the unreacted galvinoxyl were obtained 5 minutes from mixing, by which time equilibration was complete. The galvinoxyl concentrations remaining were calculated by double integration of the signal and comparing with the control experiment where ethanol was added to the galvinoxyl solution instead of flavonoid solution.
The stoichiometry of the reaction of these compounds with the galvinoxyl free radical was determined by adding the flavonoid, or vitamin E, to an excess of the radical and allowing the reaction to proceed to the endpoint.

[2] = Kinetic measurements: stopped-flow ESR, reduction of galvinoxyl radical; assay type: physicochemical; conditions: for Second order rate constants (k2) for the reduction of galvinoxyl radical / reactivity with galvinoxyl (in words): ethanol; for Second order rate constants (k2) for the reduction of galvinoxyl radical: 20° C.±2° C., flavonoid 0.2 mM + galvinoxyl 0.2 mM, unit printed only in b437; for decrease in rate of reaction with galvinoxyl relative to quercetin: fold decrease, versus quercetin; for reactivity with galvinoxyl (in words): kinetics of reduction
Method: as §1
Galv-O°+Phenol-OH≈Galv-OH+phenol-O°
The process is governed by the O—H bond dissociation enthalpy of the donor.
Ethanolic solutions of flavonoid (0.2 mM) and galvinoxyl (0.2 mM) were de-oxygenated under a stream of nitrogen gas. Aliquots (6 ml) were transferred to Hamilton gas-tight syringes (10 ml) coupled to a pneumatic ram and connected to a two-stream ESR quartz flow-cell. In situ reaction at 20° C.±2° C. between the flavonoid and galvinoxyl was initiated by rapidly evacuating the syringes. […] Decay curves were obtained by operating in timesweep mode with the static field set at the resonance maximum of the galvinoxyl signal.

[3] = system: rat liver microsomes from vitamin E-deficient rats; assay: Inhibition of TBARS production in rat liver microsomes from vitamin E-deficient rats; assay type: biochemical; conditions: for TBARS production (Mean): after 20 minutes incubation with Fe(II)-ADP/ascorbate, normalised to a tocopherol reading of 20, 30 minutes pre-incubation, higher reading = lower protection; for membrane protection against TBARS production (in words): over the 20 minute oxidation period
Method: Inhibition of TBARS production in rat liver microsomes from vitamin E-deficient rats by pre-incubation with target antioxidant and related compounds. Microsomes are subcellular fractions containing membrane fragments. In vitamin E-deficient rats, microsomes are especially prone to oxidative free radical damage. This can be quantified in terms of the production of thiobarbituric acid reactive substances (TBARS) which result from radical-mediated destruction of the polyunsaturated fatty acid constituents. Consequently, this is a useful biological model to determine the efficacy of phytochemicals as antioxidant membrane protectants. Vitamin E-deficient microsomal suspensions were incubated for 30 minutes with one of myricetin, sample A, sample B, sample C (as shown below) or d-alpha-tocopherol, or with a compound 9c, 9d, 9e, 9e*, 9f, 9g, 9g*, 9h, 9i* or 9j (prepared as described above in Examples 1 to 10). […] TBARS production was then measured by HPLC.

Solubility in octanol = assay type: physicochemical

| Molecule | Reaction Stoichiometry for the reduction of galvinoxyl radical [1] | Second order rate constants (k2) for the reduction of galvinoxyl radical [2] | TBARS production (Mean) [3] | further results |
| --- | --- | --- | --- | --- |
| O=C1c2c(O)cc(O)cc2O[C@H](c2ccc(O)c(O)c2)[C@H]1O (racemic) [Taxifolin] | 2.82 ± 0.05 | 337 ± 32 mol^−1 dm^3 s^−1 |  | Reaction Stoichiometry for the reduction of galvinoxyl radical ([1]; listed as taxifolin): 2.8; decrease in rate of reaction with galvinoxyl relative to quercetin [2]: 7 fold; reduction in rate compared with catechin ([2]; fold reduction, versus catechin): 5 fold |
| CCCCc1ccc2c(=O)c(O)c(-c3cc(O)c(O)c(O)c3)oc2c1 [9d, 7-Butyl-3-hydroxy-2-(3,4,5-trihydroxy-phenyl)-chromen-4-one] |  |  | 121.743 |  |
| CCCCCCCCc1ccc2c(=O)c(O)c(-c3cc(O)c(O)c(O)c3)oc2c1 [9f, 7-Octyl-3-hydroxy-2-(3,4,5-trihydroxy-phenyl)-chromen-4-one] |  |  | 46.1879 |  |
| O=c1c(O)c(-c2cc(O)c(O)c(O)c2)oc2cc(O)ccc12 [Control A] |  |  | 158.348 |  |
| O=c1c(O)c(-c2cc(O)c(O)c(O)c2)oc2ccccc12 [Control B] |  |  | 236.525 and 236.5249 | solubility in octanol (in words) (Solubility in octanol): very soluble in octanol; membrane protection against TBARS production (in words) [3]: does not give rise to significant membrane protective effects; antioxidant activity by ESR (in words) ([2]; ESR, kinetic or stoichiometric not stated): retains potent antioxidant activity |
| O=c1c(O)c(-c2cc(O)c(O)cc2O)oc2ccccc12 [Control C] |  |  | 186.6221 |  |
| O=c1c(O)c(-c2ccc(O)c(O)c2O)oc2ccccc12 [Control D] |  |  | 172.0899 |  |
| O=c1c(O)c(-c2ccccc2O)oc2cc(O)cc(O)c12 [Datiscetin] | 1.74 ± 0.02 | 22 ± 2 mol^−1 dm^3 s^−1 |  | Reaction Stoichiometry for the reduction of galvinoxyl radical ([1]; listed as datiscetin): ~1.8; Second order rate constants (k2) for the reduction of galvinoxyl radical ([2]; listed as datiscetin): 22 mol^−1 dm^3 s^−1; reduction in rate constant relative to kaempferol ([2]; fold reduction, versus kaempferol): 56 fold |
| O=c1c(O)c(-c2ccc(O)c(O)c2)oc2cc(O)ccc12 [Fisetin] | 3.68 ± 0.03 | 1623 ± 199 mol^−1 dm^3 s^−1 |  |  |
| O=c1c(O)c(-c2ccccc2)oc2cc(O)cc(O)c12 [Galangin] | 1.01 ± 0.03 | 18 ± 1 mol^−1 dm^3 s^−1 |  | reactivity with galvinoxyl (in words) [2]: reacted only very slowly |
| COc1ccc([C@@H]2CC(=O)c3c(O)cc(O)cc3O2)cc1O [Hesperitin] | 0.20 ± 0.02 | 6 ± 0.5 mol^−1 dm^3 s^−1 |  | reactivity with galvinoxyl (in words) [2]: little reactivity |
| O=c1cc(-c2ccc(O)c(O)c2)oc2cc(O)cc(O)c12 [Luteolin] | 3.24 ± 0.01 | 1212 ± 45 mol^−1 dm^3 s^−1 |  |  |
| O=c1c(O)c(-c2ccc(O)cc2O)oc2cc(O)cc(O)c12 [Morin] | 1.83 ± 0.01 | 10134 ± 459 mol^−1 dm^3 s^−1 |  | Reaction Stoichiometry for the reduction of galvinoxyl radical ([1]; listed as morin): 1.8; Second order rate constants (k2) for the reduction of galvinoxyl radical ([2]; listed as morin): 10134 mol^−1 dm^3 s^−1; reactivity with galvinoxyl (in words) [2]: fastest; increase in rate relative to kaempferol ([2]; fold increase, versus kaempferol): 8 fold |
| O=c1c(O)c(-c2cc(O)c(O)c(O)c2)oc2cc(O)cc(O)c12 [Myricetin] | 4.08 ± 0.01 | 14463 ± 1767 mol^−1 dm^3 s^−1 | 147.6 and 147.6306 | Reaction Stoichiometry for the reduction of galvinoxyl radical ([1]; listed as myricetin): 4.1; membrane protection against TBARS production (in words) [3]: almost no protection; reactivity with galvinoxyl (in words) [2]: fastest |
| O=c1c(O)c(-c2ccc(O)c(O)c2)oc2cc(O)cc(O)c12 [Quercetin] | 3.27 ± 0.04 | 2383 ± 258 mol^−1 dm^3 s^−1 |  | Reaction Stoichiometry for the reduction of galvinoxyl radical ([1]; listed as quercetin): 3.3; change of rate constant compared with luteolin (in words) ([2]; versus luteolin): doubling |
| COc1ccc(-c2oc3cc(O)cc(O)c3c(=O)c2O)cc1O [Tamarixetin] | 1.14 ± 0.03 | 165 ± 20 mol^−1 dm^3 s^−1 |  | decrease in rate of reaction with galvinoxyl relative to quercetin [2]: 15 fold |
| COc1cc(-c2oc3cc(O)cc(O)c3c(=O)c2O)cc(OC)c1OC [Tri-Ome-Myricetin, myricetin-3′,4′,5′-trimethylether] | 1.06 ± 0.02 | 74 ± 14 mol^−1 dm^3 s^−1 |  |  |
| Cc1c(C)c2c(c(C)c1O)CC[C@@](C)(CCC[C@H](C)CCC[C@H](C)CCCC(C)C)O2 [Vitamin E, d-(2R,4′R,8′R)-α-Tocopherol] | 2.14 ± 0.12 | 524 ± 48 mol^−1 dm^3 s^−1 |  | TBARS production (Mean) ([3]; listed as da-toc): 19.9996 and 20 |
| CCc1ccc2c(=O)c(O)c(-c3cc(O)c(O)c(O)c3)oc2c1 [compound 9c, 7-Ethyl-3-hydroxy-2-(3,4,5-trihydroxy-phenyl)-chromen-4-one] |  |  | 117.461 |  |
| CCCCCCCCCCCCc1ccc2c(=O)c(O)c(-c3cc(O)c(O)c(O)c3)oc2c1 [compound 9h, 3-Hydroxy-2-(3,4,5-trihydroxy-phenyl)-7-dodecyl-chromen-4-one] |  |  | 62.1021 |  |
| CC(C)CCCC(C)CCCC(C)CCc1ccc2c(=O)c(O)c(-c3cc(O)c(O)c(O)c3)oc2c1 (stereo not shown) [compound 9i*, 3-Hydroxy-2-(3,4,5-trihydroxy-phenyl)-7-(3,7,11-trimethyl-dodecyl)-chromen-4-one] |  |  | 32.9769 |  |
| CCCCCCCCCCCCCCCCCCc1ccc2c(=O)c(O)c(-c3cc(O)c(O)c(O)c3)oc2c1 [compound 9j, 3-Hydroxy-7-octadecyl-2-(3,4,5-trihydroxy-phenyl)-chromen-4-one] |  |  | 107.849 |  |
| CCCCCCCCCCc1ccc2oc(-c3cc(O)c(O)c(O)c3)c(O)c(=O)c2c1 [compound 11g, 6-Decyl-3-hydroxy-2-(3,4,5-trihydroxy-phenyl)-chromen-4-one] |  |  | 81.82 |  |
| CCCCCCCCc1cc2c(=O)c(O)c(-c3cc(O)c(O)c(O)c3)oc2cc1CC [compound 12, 7-Ethyl-3-hydroxy-6-octyl-2-(3,4,5-trihydroxy-phenyl)-chromen-4-one] |  |  | 53.98 |  |
| CCCCCCCCCCc1ccc2c(=O)c(O)c(-c3cc(O)c(O)cc3O)oc2c1 [compound 13g, 3,2′,4′,5′-tetrahydroxy-7-decyl-flavone] |  |  | 20.1401 | membrane protection against TBARS production (in words) [3]: good membrane protection |
| CCCCCCCCCc1cccc2c(=O)c(O)c(-c3cc(O)c(O)cc3O)oc12 [compound 14] |  |  | 104.4307 |  |
| Catechin | 2.96 ± 0.01 | 1574 ± 79 mol^−1 dm^3 s^−1 |  |  |
